This series is described as follows: Human HepG2 cell viability assay in 384 well format. On the set-up: dose 125 nL, time 70.5 hour; cytotoxicity at 70.5 h: concentration not given beside the values. The class given is toxicity, cell-based. To be noted: HepG2 cells, read-out: Inhibition.

Turning to `CC(C)C(=O)N(C)CC(=O)Nc1ccc(Br)cn1`, the cytotoxicity at 70.5 h is -2.8%. With `CN(CC(=O)Nc1ccc(Br)cn1)C(=O)C(C)(C)C` the figure was -6.91%; with `CC(C)CCC(=O)N(C)CC(=O)Nc1ccc(Br)cn1`, 43.7%; with `Cc1cnn(CC2CN(CC(=O)N(C)Cc3ccccc3)CCO2)c1` (stereo unspecified), 2.55%. As for `CSC(C)C(=O)N(C)CC(=O)Nc1ccc(Br)cn1` (stereo unspecified), the cytotoxicity at 70.5 h is -3.72%. Then `CCC(CC)C(=O)N(C)CC(=O)Nc1ccc(Br)cn1`, with -1.35%; and `c1cnn(CC2CCCCN2Cc2nc(-c3ccoc3)no2)c1` (stereo unspecified), with 3.95%.

Consider `c1cncc(-c2noc(CN3CCCC3Cn3cccn3)n2)c1` (stereo unspecified), for which the cytotoxicity at 70.5 h is -3.02%.

In the case of `COc1ccc(C(=O)N2CCCS2(=O)=O)cc1OC`, the cytotoxicity at 70.5 h is -1.63%. With `c1cncc(-c2noc(CN3CCCCC3Cn3cccn3)n2)c1` (stereo unspecified) the figure was 1.66%; with `CC(C)CC(=O)N(C)CC(=O)Nc1ccc(Br)cn1`, 0.489%.

`Cc1nc(CN(C)C2CCN(Cc3nc4ccccc4n3C)C2)no1` (stereo unspecified): the cytotoxicity at 70.5 h was -2.1%. With `Cc1cccc(-c2noc(CN3CCCC3Cn3cncn3)n2)c1` (stereo unspecified) the figure was -1.92%; with `Cc1cnc(CN(C)C2CCN(Cc3nccn3C)C2)o1` (stereo unspecified), -3.1%; with `Cc1cc(CN(C)C(=O)c2ccc(F)c(C(F)(F)F)c2)no1`, -1.4%. In the case of `Cc1nc(C(=O)N2CCCC2c2noc(C3CC3)n2)c[nH]1` (stereo unspecified), the cytotoxicity at 70.5 h is -0.671%. As for `Cc1cc(CN(C)C(=O)c2ccc(OCC(F)(F)F)nc2)no1`, the cytotoxicity at 70.5 h worked out at 0.93%. Consider `CCc1nc(CC(=O)N2CCCCC2Cn2cccn2)cs1` (stereo unspecified), for which the cytotoxicity at 70.5 h was 19%.

As for `CCc1nc(C2CCCN2C(=O)c2csc(COC)n2)no1` (stereo unspecified), the cytotoxicity at 70.5 h was -0.0198%. In the case of `OC(CNCCn1cccn1)c1cccc(F)c1` (stereo unspecified), the cytotoxicity at 70.5 h is -7.66%. Then `Cc1noc(C(C)N2CCN(Cc3nnc(C4CC4)o3)CC2)n1` (stereo unspecified), with -3.98%; and `CC(Cn1cccn1)NCC(=O)NCCc1cccs1` (stereo unspecified), with -4.39%; and `CC(C)c1nc(C2CCCN2CC(=O)Nc2cccnc2)no1` (stereo unspecified), with -14%.

On to `CCc1nc(C2CCCN2Cc2cc(=O)n(C)c(=O)n2C)no1` (stereo unspecified), for which the cytotoxicity at 70.5 h is -16.4%. Regarding `Cc1cc(NC(=O)CN2CCCC2c2noc(C(C)C)n2)on1` (stereo unspecified), the cytotoxicity at 70.5 h was -14.1%.

As for `CCn1nc2c(cc1=O)CN(Cc1nc(-c3cccs3)no1)CC2`, the cytotoxicity at 70.5 h was -12.8%. Then `CC(Cn1cccn1)NC(=O)Cc1csc(C(C)C)n1` (stereo unspecified), with -10.5%; and `Cn1ccc(C(=O)NCc2ccc(N3CCCCC3)nc2)cc1=O`, with 18.6%. Then `CC(C)NC(=O)c1cc(Br)c2c(c1)OCCO2`, with -6.96%. Take `CSc1ccccc1C(=O)NCCCN1CCc2ccccc2C1`: the cytotoxicity at 70.5 h is -5.68%. Then `Cc1cc(C)n(CC2CN(CCOc3ccccc3F)CCO2)n1` (stereo unspecified), with -2.73%. Then `CC(C)OCc1cccc(CNc2cnn(C)c(=O)c2Cl)c1`, with 3.32%; and `CC(C)C(C)NC(=O)c1cc(Br)c2c(c1)OCCO2` (stereo unspecified), with -4.14%; and `Cc1nc(C)n(CC2CN(CCOc3ccccc3C#N)CCO2)n1` (stereo unspecified), with -8.64%. For `Cc1nc(C)n(CC2CN(CCOc3ccc(C#N)cc3)CCO2)n1` (stereo unspecified), the cytotoxicity at 70.5 h is -13.3%. Then `Cc1nc(C2CCCN(C(=O)COCCc3ccccc3)C2)no1` (stereo unspecified), with -6.43%. `CCc1csc(C2CCCN(C(=O)COc3cc(C)on3)C2)n1` (stereo unspecified): the cytotoxicity at 70.5 h is -8.8%. With `Cc1cn2c(n1)CCC(NC(=O)c1[nH]nc(C)c1Br)C2` (stereo unspecified) the figure was 13.2%; with `Cc1cc(OCC(=O)N2CCCC(c3noc(C(C)C)n3)C2)no1` (stereo unspecified), -1.68%; with `Cc1nnc(NC(=O)CN2CCCC2c2noc(C(C)C)n2)s1` (stereo unspecified), -8.98%. With `Cc1ccc(OCCN2CCCC(c3cc(C(N)=O)[nH]n3)C2)cc1` (stereo unspecified), the cytotoxicity at 70.5 h is -5.38%.
